Data reported in ChEMBL document CHEMBL1201862, “PubChem BioAssay data set” (2004).
Values joined by “and” are separate entries in the source; they are usually repeats but may differ in a detail not shown here. Identical values can stand only once. Active and inactive are the calls of the source.

How the values were obtained:
[1] = target: Lethal factor (Bacillus anthracis, UniProt P15917); assay: High-throughput multiplex microsphere dose response for inhibitors of toxin protease, specifically Lethal Factor protease, compounds from Cherry Pick 02.; assay type: functional; settings: read-out: EC50_MICROM
Sequence of Lethal factor (P15917 whole entry): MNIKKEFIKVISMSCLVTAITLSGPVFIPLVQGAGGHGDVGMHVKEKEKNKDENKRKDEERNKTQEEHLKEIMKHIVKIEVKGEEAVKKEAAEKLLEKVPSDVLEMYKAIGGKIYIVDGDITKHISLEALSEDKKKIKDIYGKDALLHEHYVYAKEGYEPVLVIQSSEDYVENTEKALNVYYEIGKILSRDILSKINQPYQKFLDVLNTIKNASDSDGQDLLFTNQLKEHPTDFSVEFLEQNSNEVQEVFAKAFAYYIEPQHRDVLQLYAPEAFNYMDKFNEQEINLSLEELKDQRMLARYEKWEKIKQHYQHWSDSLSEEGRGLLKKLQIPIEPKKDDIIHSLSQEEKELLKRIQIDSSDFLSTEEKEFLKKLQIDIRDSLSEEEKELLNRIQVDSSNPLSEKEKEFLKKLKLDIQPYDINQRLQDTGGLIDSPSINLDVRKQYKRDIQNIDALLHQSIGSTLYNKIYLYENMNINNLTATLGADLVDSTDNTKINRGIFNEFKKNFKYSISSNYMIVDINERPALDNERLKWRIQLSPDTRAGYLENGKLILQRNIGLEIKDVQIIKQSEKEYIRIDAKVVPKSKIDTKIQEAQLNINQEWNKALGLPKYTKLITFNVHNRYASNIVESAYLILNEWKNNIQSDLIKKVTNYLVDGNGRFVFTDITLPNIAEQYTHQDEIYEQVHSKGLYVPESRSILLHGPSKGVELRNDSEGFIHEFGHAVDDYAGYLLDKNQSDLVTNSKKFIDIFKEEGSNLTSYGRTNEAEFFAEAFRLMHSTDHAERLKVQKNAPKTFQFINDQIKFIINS

[2] = target: Botulinum neurotoxin type F (Clostridium botulinum, UniProt P30996); assay: High-throughput multiplex microsphere dose response for inhibitors of toxin protease, specifically Botulinum neurotoxin light chain F protease, compounds from Cherry Pick 02.; assay type: functional; settings: read-out: EC50_MICROM
Sequence of Botulinum neurotoxin type F (P30996 1-436 limits assumed): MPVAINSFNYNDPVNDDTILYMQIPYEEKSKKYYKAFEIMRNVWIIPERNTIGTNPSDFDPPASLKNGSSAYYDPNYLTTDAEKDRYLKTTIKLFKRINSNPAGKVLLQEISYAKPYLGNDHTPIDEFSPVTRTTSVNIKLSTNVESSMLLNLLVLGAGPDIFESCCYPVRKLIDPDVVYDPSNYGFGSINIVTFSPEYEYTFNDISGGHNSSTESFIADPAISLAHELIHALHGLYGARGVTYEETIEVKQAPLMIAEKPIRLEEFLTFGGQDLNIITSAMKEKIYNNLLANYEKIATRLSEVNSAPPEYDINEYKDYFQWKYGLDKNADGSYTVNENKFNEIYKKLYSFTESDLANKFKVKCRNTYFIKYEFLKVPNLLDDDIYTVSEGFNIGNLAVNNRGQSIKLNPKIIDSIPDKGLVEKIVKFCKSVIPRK

[3] = HEK293T cell cytotoxicity, dose response, cytotoxicity control, CellTiter-Glo luminescence, dry powder, set 6 (AID 651949); assay type: functional, cell-based; settings: HEK293
[4] = target: NAD-dependent protein deacylase sirtuin-5, mitochondrial (Homo sapiens, UniProt Q9NXA8); assay: SIRT5 deacylase inhibitors, dose response, biochemical, fluorescence imaging, cherry-pick, set 6 (AID 720597)
Sequence of NAD-dependent protein deacylase sirtuin-5, mitochondrial (Q9NXA8 whole entry): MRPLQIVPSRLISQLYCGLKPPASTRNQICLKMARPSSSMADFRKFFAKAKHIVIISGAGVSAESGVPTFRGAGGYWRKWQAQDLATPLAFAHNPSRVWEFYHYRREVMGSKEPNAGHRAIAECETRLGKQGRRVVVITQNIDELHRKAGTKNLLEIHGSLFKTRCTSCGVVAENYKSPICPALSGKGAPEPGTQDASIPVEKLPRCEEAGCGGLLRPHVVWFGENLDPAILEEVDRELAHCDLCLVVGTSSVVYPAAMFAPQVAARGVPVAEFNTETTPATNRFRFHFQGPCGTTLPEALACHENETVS

[5] = target: Kallikrein-7 (Homo sapiens, UniProt P49862); assay: Fluorescence Intensity-based biochemical primary high throughput dose response assay to identify activators of kallikrein-7 (K7) zymogen.
Sequence of Kallikrein-7 (P49862 whole entry): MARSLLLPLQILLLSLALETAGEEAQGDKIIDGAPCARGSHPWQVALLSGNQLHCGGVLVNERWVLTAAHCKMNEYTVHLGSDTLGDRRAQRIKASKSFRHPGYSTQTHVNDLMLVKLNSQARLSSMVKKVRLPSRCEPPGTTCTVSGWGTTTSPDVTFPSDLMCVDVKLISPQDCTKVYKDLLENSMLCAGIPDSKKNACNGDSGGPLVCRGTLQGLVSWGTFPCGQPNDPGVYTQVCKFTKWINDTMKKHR

[6] = target: T1, Microphthalmia-associated transcription factor (Homo sapiens, UniProt O75030); assay: TRPM1 promoter luciferase signal decrease, dose response, MITF inhibitor project, cell-based, SK-MEL-5, cherry-picked, set 3 (AID 493073); assay type: functional
T1 sequence (O75030 whole entry): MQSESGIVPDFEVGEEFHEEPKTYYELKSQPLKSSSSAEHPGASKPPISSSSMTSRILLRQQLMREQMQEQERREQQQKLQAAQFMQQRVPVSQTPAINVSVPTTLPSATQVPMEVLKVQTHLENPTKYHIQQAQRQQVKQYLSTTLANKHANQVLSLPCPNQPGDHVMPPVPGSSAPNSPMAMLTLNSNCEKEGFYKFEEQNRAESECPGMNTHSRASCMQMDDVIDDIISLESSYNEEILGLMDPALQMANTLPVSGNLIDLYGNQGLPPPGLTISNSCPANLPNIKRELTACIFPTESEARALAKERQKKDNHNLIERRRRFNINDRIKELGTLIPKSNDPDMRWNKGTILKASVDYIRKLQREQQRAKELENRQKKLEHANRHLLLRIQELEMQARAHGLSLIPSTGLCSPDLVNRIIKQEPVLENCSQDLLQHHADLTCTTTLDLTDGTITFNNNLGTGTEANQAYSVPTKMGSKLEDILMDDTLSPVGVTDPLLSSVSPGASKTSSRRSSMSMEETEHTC

[7] = inhibitors of HIV Env-driven cell fusion, dose response, cherry-pick (AID 652057); assay type: functional, cell-based
[8] = ZM109 Env clade C HIV-1 fusion inhibitors, dose response, HeLa effector, CEM target cells, luciferase, cherry-pick (AID 652058); assay type: functional, cell-based
[9] = off-target signal loss in HeLa-CEM21 co-culture – HeLa F-luc CTL cells, cherry-picked, counter-screen for HIV-1 Env fusion inhibitor project, dose response (AID 652040); assay type: functional, cell-based;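 also: potency for signal decrease marking cytotoxic or nonspecific inhibition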
[10] = inhibitors of clade B AD8 Env fusion, dose response, cell-based, cherry-pick (AID 652062); assay type: functional;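 also: luciferase signal from cell-cell fusion driven by HIV-1 clade B AD8 Env; potency is for inhibitors of fusion seen as a drop in luminescence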
[11] = HIV Env cell-cell fusion inhibitors, dose response, HIV entry, plate reader, dry powder (AID 687023); assay type: functional, cell-based
[12] = luciferase signal loss, tTA control fusion, HeLa F-luc tTA cells, dry powder, counter-screen for HIV Env fusion inhibitor project, dose response (AID 687021); assay type: functional, cell-based
[13] = CEM21 cell cytotoxicity, dose response, cytotoxicity control, plate reader, dry powder (AID 687026); assay type: functional, cell-based
[14] = target: Paired box protein Pax-8 (Homo sapiens, UniProt Q06710); assay: inhibitors of PAX8-driven TPO luciferase reporter, dose response, RMG-I cells, cherry-pick (AID 687027); assay type: functional, cell-based;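 also: luciferase reporter driven by Pax8 target thyroperoxidase promoter measured by SteadyGlo luminescence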
Sequence of Paired box protein Pax-8 (Q06710 whole entry): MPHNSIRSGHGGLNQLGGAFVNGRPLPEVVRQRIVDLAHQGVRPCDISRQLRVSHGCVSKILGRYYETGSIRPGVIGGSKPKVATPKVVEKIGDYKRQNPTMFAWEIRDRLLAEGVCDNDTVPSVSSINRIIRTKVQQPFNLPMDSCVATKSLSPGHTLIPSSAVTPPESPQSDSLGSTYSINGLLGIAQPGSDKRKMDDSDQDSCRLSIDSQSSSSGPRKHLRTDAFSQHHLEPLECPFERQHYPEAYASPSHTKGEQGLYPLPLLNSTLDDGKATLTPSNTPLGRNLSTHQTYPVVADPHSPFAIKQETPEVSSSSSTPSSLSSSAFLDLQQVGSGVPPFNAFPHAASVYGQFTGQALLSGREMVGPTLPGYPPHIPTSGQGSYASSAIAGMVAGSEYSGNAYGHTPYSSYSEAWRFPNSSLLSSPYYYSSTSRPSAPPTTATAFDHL

[15] = A2780 ovarian cancer cell cytotoxicity, dose response, cytotoxicity control, plate reader, dry powder samples (AID 743046); assay type: functional, cell-based
[16] = inhibitors of CMV-promoter luciferase reporter, dose response, counter-screen for Pax8 inhibitor project, cell-based, HEK293, luminescence, dry powder (AID 743020); assay type: functional
[17] = NIH:OVCAR-3 ovarian cancer cell cytotoxicity, dose response, PAX8 inhibitor project, plate reader, dry powder samples (AID 743044); assay type: functional, cell-based
[18] = IGROV1 ovarian cancer cell cytotoxicity, dose response, PAX8 inhibitor project, plate reader, dry powder samples (AID 743043); assay type: functional, cell-based; settings: IGROV-1
[19] = non-specific cell cytotoxicity, dose response, cytotoxicity control for PAX8 inhibitor project, plate reader, dry powder samples (AID 743021); assay type: functional, cell-based
[20] = cytotoxicity in OVCAR8 ovarian cancer cells, dose response, PAX8 project, cell-based, plate reader, dry powder samples (AID 743197); assay type: functional; settings: OVCAR-8
[21] = inhibitors of PGC1a acetylation in cells, dose response, cell-based, cherry-picked samples (AID 720514); assay type: functional;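 also: potency may reflect raised or lowered acetylation signal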
[22] = Luminescence Cell-Based Dose Retest to Confirm Inhibitors of Cancer Stem Cells. [Related pubchem assays (depositor defined):AID2717, AID2721]; assay type: functional; settings: Homo sapiens
[23] = test system: INS1; assay: beta cell apoptosis inhibitors, cytokine rescue, dose response, luminescence, retest (AID 449756); assay type: functional, cell-based; settings: Rattus norvegicus;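 also: cell death triggered by IL-1 beta plus TNF-alpha plus IFN-gamma mixture; protective hits raise ATP signal compared with cytokine alone wells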
[24] = miR-122 activators in hepatoma reporter cells, dose response, cell-based, Huh7 psiCHECK-miR122, Renilla luciferase, cherry-picked (AID 651956); assay type: functional;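 also: huh7 hepatoma cells stably carrying a psiCHECK-2 miR-122 sensor plasmid; renilla luciferase signal reporting endogenous miR-122 activity after 48 h compound exposure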
[25] = HEK293T cell cytotoxicity, dose response, cytotoxicity control for HIV Vif inhibitor project, cherry-picks (AID 652208); assay type: functional, cell-based
[26] = HEK293T cytotoxicity, dose response, cytotoxicity control for miR-122 modulator project, cell-based, activator set, cherry-pick (AID 720690); assay type: functional;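 also: HEK293T human cells scored for general mammalian cytotoxicity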
[27] = target: Mu-type opioid receptor (Homo sapiens, UniProt P35372); assay type: functional, cell-based;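 also: U2OS cells with beta-arrestin recruitment to OPRM1 by beta-gal complementation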
Sequence of Mu-type opioid receptor (P35372 whole entry): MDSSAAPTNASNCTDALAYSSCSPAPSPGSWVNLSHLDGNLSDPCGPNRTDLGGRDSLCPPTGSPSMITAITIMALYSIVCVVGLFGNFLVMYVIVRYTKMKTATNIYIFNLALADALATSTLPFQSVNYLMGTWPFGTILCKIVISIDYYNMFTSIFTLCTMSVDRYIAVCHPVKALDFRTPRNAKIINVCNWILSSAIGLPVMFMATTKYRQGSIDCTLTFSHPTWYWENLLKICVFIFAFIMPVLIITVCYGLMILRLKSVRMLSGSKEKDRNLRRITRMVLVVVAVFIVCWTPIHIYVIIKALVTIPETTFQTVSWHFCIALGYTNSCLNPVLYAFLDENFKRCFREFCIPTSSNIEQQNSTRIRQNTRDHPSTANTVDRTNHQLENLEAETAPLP

[28] = target: 5-hydroxytryptamine receptor 2A (Mus musculus, UniProt P35363); assay type: functional, cell-based;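 also: CHO-K1 cells with tagged receptor and beta-arrestin; agonist potency measured as compound-induced activation of the receptor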
Sequence of 5-hydroxytryptamine receptor 2A (P35363 whole entry): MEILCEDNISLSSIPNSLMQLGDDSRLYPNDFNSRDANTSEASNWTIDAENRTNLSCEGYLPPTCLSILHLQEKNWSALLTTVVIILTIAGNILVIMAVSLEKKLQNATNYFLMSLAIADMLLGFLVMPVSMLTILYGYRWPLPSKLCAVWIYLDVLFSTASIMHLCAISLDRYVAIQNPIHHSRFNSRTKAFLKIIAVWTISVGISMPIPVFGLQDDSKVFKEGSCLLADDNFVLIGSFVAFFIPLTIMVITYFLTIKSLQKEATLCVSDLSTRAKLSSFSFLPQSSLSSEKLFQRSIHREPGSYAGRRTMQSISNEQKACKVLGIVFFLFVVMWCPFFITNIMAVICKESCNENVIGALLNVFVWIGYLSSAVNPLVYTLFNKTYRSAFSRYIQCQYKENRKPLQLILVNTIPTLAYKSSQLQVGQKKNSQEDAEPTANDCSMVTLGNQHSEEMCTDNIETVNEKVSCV

## O=C(COC(=O)c1cncc(Br)c1)NC12CC3CC(CC(C3)C1)C2
[1]
  EC50: 11.5 µM (active)
[2]
  EC50: > 20 µM (inactive)

## c1ccc(CSc2nnc(C3CCCC3)o2)cc1
[3]
  AC50: > 52 µM (inactive)

## CCCNC(=O)N1[C@@H](CO)[C@H](c2ccccc2)C12CN(C(=O)CC1CC1)C2
[4]
  AC50: 24.6 µM (active)

## COc1ccc2ccccc2c1C=NNC(=O)c1cc(-c2ccc(C)c(C)c2)[nH]n1
[5]
  EC50: > 2.57 µM (active)

## Oc1ccc(CNc2ccccc2F)c2cccnc12
[6]
  AC50: 15.1 µM (active)
[7]
  AC50: 5.19 µM (active)
[8]
  AC50: 1.58 µM (active)
[9]
  AC50: 36 µM (active)
[10]
  AC50: 9.33 µM (active)
[11]
  AC50: > 70 µM (inactive)
[12]
  AC50: > 70 µM (inactive)
[13]
  AC50: 50.8 µM (active) and 64.1 µM (active)

## C[C@@H]1CN([C@H](C)CO)C(=O)c2cc(NS(=O)(=O)c3ccccc3)ccc2O[C@@H](C)CCCCO[C@@H]1CN(C)Cc1ccc(C(F)(F)F)cc1
[14]
  AC50: 5.74 µM (active)
[15]
  AC50: 34.8 µM (active)
[16]
  AC50: 65.4 µM (active)
[17]
  AC50: 27.4 µM (active)
[18]
  AC50: 35.4 µM (active)
[19]
  AC50: 49 µM (active)
[20]
  AC50: 39 µM (active)

## Cc1cc(-c2ccc(Cl)cc2)n2ncnc2n1
[21]
  AC50: 29.8 µM (active)

## COc1ccc(-c2cc(-c3nc4ccccn4c3NCc3ccccc3)ccc2OC)cc1
[22]
  AC50: 5.24 µM (active)
[23]
  AC50: 1.33 µM (active)
[24]
  AC50: 8.74 µM (active)
[25]
  AC50: 1.69 µM (active)
[26]
  AC50: 3.12 µM (active)

## FC(F)(F)c1cccc(CN2CCN(c3ncccn3)CC2)c1
[27]
  EC50: 92.4 µM (inactive)
[28]
  EC50: 4.16 µM (active)
